# Measurements as given in BindingDB's records for doi:10.1016/s0014-2999(02)02124-6 (Schering-Plough Research Institute, 2002).
# Columns and labels:
# [1] = target: Substance-P receptor (Homo sapiens, UniProt P25103)
# [2] = target: T1, Substance-K receptor (Homo sapiens, UniProt P21452)
# T1 sequence (P21452 whole entry): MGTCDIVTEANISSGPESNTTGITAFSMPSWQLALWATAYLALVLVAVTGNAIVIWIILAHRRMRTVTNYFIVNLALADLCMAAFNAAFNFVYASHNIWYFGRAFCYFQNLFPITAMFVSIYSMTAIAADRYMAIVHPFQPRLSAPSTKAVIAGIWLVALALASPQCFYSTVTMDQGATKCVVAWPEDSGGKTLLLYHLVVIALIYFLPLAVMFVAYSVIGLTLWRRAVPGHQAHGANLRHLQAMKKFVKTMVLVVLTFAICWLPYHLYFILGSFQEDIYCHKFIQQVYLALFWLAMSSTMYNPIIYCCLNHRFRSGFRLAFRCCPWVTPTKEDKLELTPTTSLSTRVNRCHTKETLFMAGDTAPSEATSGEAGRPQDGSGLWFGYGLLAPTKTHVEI
# [3] = target: T2, Neuromedin-K receptor (Homo sapiens, UniProt P29371)
# T2 sequence (P29371 whole entry): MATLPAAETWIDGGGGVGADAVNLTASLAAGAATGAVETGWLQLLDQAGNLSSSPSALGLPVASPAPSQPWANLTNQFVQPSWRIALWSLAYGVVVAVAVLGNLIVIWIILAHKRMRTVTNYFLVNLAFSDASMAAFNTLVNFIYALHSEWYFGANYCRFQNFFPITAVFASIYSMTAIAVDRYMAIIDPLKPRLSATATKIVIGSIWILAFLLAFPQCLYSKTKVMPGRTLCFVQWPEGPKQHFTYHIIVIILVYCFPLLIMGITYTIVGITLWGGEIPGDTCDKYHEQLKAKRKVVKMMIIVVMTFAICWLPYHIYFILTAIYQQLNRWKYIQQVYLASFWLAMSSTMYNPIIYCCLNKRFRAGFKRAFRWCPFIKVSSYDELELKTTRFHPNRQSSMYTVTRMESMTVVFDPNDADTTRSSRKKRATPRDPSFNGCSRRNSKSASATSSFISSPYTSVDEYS
# Sequence of Substance-P receptor (P25103 whole entry): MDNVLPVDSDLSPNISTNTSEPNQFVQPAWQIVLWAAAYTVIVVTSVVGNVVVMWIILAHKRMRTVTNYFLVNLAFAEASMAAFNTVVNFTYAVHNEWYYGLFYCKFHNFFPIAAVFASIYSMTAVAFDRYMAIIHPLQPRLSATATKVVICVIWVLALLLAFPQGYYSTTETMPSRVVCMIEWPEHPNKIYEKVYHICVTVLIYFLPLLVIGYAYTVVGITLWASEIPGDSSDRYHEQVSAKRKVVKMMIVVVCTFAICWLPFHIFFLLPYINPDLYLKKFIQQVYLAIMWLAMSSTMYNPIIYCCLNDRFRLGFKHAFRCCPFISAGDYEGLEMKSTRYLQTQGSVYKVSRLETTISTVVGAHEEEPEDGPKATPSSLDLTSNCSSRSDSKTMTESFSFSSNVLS
Compound,Ki [1] [nM],Ki [2] [nM],Ki [3] [nM]
CNC(=O)CC1CCCN(C2CCN(CC[C@@H](/C(CN(C)C(=O)c3cc(Cl)cc(Cl)c3)=N/OC)c3ccc(Cl)c(Cl)c3)CC2)C1=O (stereo partly drawn),1.3,0.4,0.3
COc1ccccc1CN[C@H]1CCCN[C@H]1c1ccccc1 [(+/-)(2-Methoxy-benzyl)-(2-phenyl-piperidin-3-yl)-amine],–,> 10000,> 10000
CC(=O)NC1(c2ccccc2)CCN(CCC(CN(C)C(=O)c2ccccc2)c2ccc(Cl)c(Cl)c2)CC1 (stereo not drawn) [SR 48968],273,0.4,1280
